Reference: doi:10.1101/2023.04.18.537371v1 (bioRxiv, 2023)
Peptide text beside a SMILES is read from it.

Columns and labels:
[1] = In vitro blood to plasma partitioning; assay type: in vitro ADME, dog
CYP2C8 = target: T1, CYP2C8 (Homo sapiens, UniProt P10632); experiment: CYP450 inhibition assay; assay type: in vitro ADME
T1 sequence (P10632 1-490): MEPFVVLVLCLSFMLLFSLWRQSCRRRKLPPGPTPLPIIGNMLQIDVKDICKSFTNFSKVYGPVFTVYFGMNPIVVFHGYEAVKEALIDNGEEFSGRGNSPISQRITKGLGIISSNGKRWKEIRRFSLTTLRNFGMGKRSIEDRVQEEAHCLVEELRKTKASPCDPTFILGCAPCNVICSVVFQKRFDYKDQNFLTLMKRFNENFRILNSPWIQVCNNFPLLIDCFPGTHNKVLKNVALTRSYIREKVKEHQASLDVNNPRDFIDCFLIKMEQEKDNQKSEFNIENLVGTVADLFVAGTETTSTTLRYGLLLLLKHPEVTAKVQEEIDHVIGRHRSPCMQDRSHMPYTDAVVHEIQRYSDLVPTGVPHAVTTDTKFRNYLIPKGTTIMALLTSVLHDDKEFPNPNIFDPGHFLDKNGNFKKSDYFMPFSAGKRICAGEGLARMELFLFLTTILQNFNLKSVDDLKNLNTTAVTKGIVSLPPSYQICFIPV

OATP1B3 = OATP1B3 (Homo sapiens, UniProt Q9NPD5); experiment: Transporter inhibition in HEK293 cells; assay type: in vitro ADME
Sequence of OATP1B3 (Q9NPD5 whole entry): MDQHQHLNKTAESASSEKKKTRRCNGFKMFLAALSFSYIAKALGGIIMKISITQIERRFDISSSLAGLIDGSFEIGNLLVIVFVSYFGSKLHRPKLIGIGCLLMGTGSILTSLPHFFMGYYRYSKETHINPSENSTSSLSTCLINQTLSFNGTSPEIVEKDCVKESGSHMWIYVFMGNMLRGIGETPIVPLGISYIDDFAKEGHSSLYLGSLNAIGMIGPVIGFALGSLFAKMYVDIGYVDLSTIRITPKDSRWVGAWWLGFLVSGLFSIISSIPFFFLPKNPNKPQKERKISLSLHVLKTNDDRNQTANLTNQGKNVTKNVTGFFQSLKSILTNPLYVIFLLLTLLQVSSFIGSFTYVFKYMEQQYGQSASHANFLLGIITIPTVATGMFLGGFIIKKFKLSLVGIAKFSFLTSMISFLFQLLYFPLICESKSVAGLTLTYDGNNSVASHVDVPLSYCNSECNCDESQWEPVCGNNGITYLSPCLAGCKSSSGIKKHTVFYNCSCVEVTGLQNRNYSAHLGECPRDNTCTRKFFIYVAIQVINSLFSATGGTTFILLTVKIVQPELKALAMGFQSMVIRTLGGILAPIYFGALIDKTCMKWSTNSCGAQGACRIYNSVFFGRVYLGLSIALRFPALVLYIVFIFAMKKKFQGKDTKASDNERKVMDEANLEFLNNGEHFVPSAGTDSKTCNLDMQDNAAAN

beagle dog hepatocytes = experiment: Hepatocyte stability; assay type: in vitro ADME; settings: 1.00 μM
CYP2C19 = CYP2C19 (Homo sapiens, UniProt P33261); experiment: CYP time-dependent inhibition assay; assay type: in vitro ADME
Sequence of CYP2C19 (P33261 whole entry): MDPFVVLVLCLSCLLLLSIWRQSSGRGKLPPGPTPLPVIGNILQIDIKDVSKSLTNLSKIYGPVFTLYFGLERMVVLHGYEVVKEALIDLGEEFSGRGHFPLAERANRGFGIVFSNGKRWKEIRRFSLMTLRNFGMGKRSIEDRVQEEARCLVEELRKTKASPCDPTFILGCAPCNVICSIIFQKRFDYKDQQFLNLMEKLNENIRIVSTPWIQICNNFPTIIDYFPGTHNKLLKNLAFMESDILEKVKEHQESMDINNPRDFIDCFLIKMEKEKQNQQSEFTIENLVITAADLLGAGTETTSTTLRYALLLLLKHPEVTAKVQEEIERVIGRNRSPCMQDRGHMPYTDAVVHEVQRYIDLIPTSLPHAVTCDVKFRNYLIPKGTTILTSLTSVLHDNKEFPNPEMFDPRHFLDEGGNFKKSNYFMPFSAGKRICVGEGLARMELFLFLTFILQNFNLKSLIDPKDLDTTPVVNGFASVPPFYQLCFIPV

[2] = Single-dose pharmacokinetics in SD rats; assay type: in vivo, SD rat
[3] = male, SD, rat, plasma, iv, 2 mg/kg
[4] = male, SD, rat, plasma, sc, 10 mg/kg

Compound: CC(C)[C@@H](NC(=O)[C@H](N)Cc1ccc(O)cc1)C(=O)N[C@H](CC(=O)O)C(=O)N[C@H](CCCCN)C(=O)N[C@H](CCCNC(=N)N)C(=O)O [FC-12738, (D-Tyr)-(D-Val)-(D-Asp)-(D-Lys)-(D-Arg)] (HELM PEPTIDE1{[dY].[dV].[dD].[dK].[dR]}$$$$V2.0)
- Mean erythrocyte to plasma ratio KE/P ([1]; dog whole blood, 0.200 μM, 37°C, 60 min): < 0.18
- Mean erythrocyte to plasma ratio KE/P ([1]; dog whole blood, 2.00 μM, 37°C, 60 min): 0.07
- Mean erythrocyte to plasma ratio KE/P ([1]; dog whole blood, 10.0 μM, 37°C, 60 min): < 0.14
- Mean blood-to-plasma ratio KB/P ([1]; dog whole blood, 10.0 μM, 37°C, 60 min, LC-MS/MS): 0.58
- tissue to tissue ratio at 1 h, 0.2 µM ([1]; dog, whole blood): 0.57
- tissue to tissue ratio at 1 h, 2 µM ([1]; dog, whole blood): 0.55
- IC50 (CYP2C8): > 100 µM
- IC50 (OATP1B3): > 100 µM
- intrinsic clearance CLint(hep) (beagle dog hepatocytes; cryopreserved beagle dog hepatocytes, 37.0°C, 120 min): < 1.9 μL/min/10^6 cells
- half-life (beagle dog hepatocytes; cryopreserved beagle dog hepatocytes, 37.0°C, 120 min, LC-MS/MS): > 372.7 min
- hepatic clearance CLint(liver) (beagle dog hepatocytes; scaled from beagle dog hepatocytes): < 12.8 mL/min/kg
- IC50 (CYP2C19): > 100 µM
- Time-dependent inhibition of CYP2C19 (CYP2C19; cutoff IC50 shift >= 1.5-fold, 30 min pre-incubation ± NADPH): no time-dependent inhibition
- Tolerability / adverse effects in-life ([2]; male SD rats, IV 2 mg/kg or SC 10 mg/kg single): No adverse effect was observed
- AUC(0-inf) [2, 3]: 2830 ng·h/mL
- AUC(0-t) [2, 3]: 2800 ng·h/mL
- C0 [2, 3]: 7830 ng/mL
- Vd [2, 3]: 0.309 L/kg
- clearance [2, 3]: 11.8 mL/min/kg
- half-life [2, 3]: 19.1 min
- AUC(0-inf) [2, 4]: 13000 ng·h/mL
- AUC(0-t) [2, 4]: 13000 ng·h/mL
- Cmax [2, 4]: 8430 ng/mL
- Tmax [2, 4]: 25 min
- bioavailability [2, 4]: 91.9%
- half-life [2, 4]: 40.8 min
